Measurements from BigSolDB 2.1.

CC(=CC(C)=Nc1c(C)cccc1C)Nc1c(C)cccc1C
solubility (mole fraction)
Conditions | 273.15 K | 278.15 K | 283.15 K | 288.15 K | 293.15 K | 298.15 K | 303.15 K
in THF | 0.345 | 0.362 | 0.381 | 0.403 | 0.429 | 0.456 | 0.487
in diethyl ether | 0.188 | 0.204 | 0.22 | 0.239 | 0.265 | 0.295 | 0.334
in ethanol | 0.0093 | 0.0099 | 0.0107 | 0.0117 | 0.0129 | 0.0143 | 0.0166
in methanol | 0.0015 | 0.0017 | 0.002 | 0.0024 | 0.0029 | 0.0033 | 0.0041
in n-hexane | 0.167 | 0.194 | 0.223 | 0.253 | 0.285 | 0.316 | 0.347
in toluene | 0.266 | 0.296 | 0.324 | 0.347 | 0.374 | 0.433 | 0.503
